In ChEMBL document CHEMBL1149112, “Predicting the cell differentiation activity of 1 alpha,25-dihydroxyvitamin D3 side chain analogues from docking simulations” (J Med Chem, 2004):

Tests used:
[1] = biological target: T1, Vitamin D3 receptor (Homo sapiens) (UniProt P11473); assay: Binding affinity against Vitamin D3 receptor with reference to compound 1
T1 sequence (whole entry): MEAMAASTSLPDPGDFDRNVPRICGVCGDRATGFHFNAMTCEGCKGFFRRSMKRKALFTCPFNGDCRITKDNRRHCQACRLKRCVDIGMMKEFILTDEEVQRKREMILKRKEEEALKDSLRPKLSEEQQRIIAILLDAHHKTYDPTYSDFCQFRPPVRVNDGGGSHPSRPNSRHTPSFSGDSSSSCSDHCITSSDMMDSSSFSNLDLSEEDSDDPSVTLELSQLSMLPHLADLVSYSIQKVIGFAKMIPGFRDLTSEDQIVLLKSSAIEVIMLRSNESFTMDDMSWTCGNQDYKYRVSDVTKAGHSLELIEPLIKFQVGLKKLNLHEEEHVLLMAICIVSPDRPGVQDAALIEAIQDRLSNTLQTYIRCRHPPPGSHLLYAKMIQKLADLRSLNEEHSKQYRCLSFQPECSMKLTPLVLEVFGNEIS

[2] = biological target: T1, Vitamin D3 receptor (Homo sapiens); assay: Binding affinity for Vitamin D3 receptor compared to compound 1; value ranges from 5-10
[3] = biological target: T1, Vitamin D3 receptor (Homo sapiens); assay: Binding affinity against Vitamin D3 receptor with reference to compound 1; value ranges from 15-30
[4] = biological target: T1, Vitamin D3 receptor (Homo sapiens); assay: Binding affinity against Vitamin D3 receptor with reference to compound 1; value ranges from 2-5

| SMILES | A/Ad [1] | also measured |
| --- | --- | --- |
| C=C1/C(=C/C=C2/CCC[C@]3(C)[C@@H](C(C)COCC(C)(C)O)CC[C@@H]23)C[C@@H](O)C[C@@H]1O (some centres undefined) | 0.2 |  |
| C=C1/C(=C/C=C2/CCC[C@]3(C)C(C(C)OCCC(C)(C)O)CC[C@@H]23)C[C@@H](O)C[C@@H]1O (single isomer, unassigned) |  | A/Ad [2]: 10 |
| C=C1/C(=C/C=C2/CCC[C@]3(C)[C@@H](C(C)OCCC(O)(CC)CC)CC[C@@H]23)C[C@@H](O)C[C@@H]1O (some centres undefined) |  | A/Ad [3]: 30 |
| C=C1/C(=C/C=C2/CCC[C@]3(C)[C@@H]([C@H](C)CCCC(O)(CC)CC)CC[C@@H]23)C[C@@H](O)C[C@@H]1O |  | A/Ad [4]: 5 |

Further lines, with some results ahead:

| A/Ad [1] | SMILES | also measured |
| --- | --- | --- |
| 20 | C=C1/C(=C/C=C2/CCC[C@]3(C)C([C@H](C)OCCCC(O)(CC)CC)CC[C@@H]23)C[C@@H](O)C[C@@H]1O (single isomer, unassigned) |  |
| 200 | C=C1/C(=C/C=C2/CCC[C@]3(C)[C@@H]([C@@H](C)CCCCC(O)(CC)CC)CC[C@@H]23)C[C@@H](O)C[C@@H]1O |  |
| 200000 | C=C1/C(=C/C=C2/CCC[C@]3(C)[C@@H]([C@@H](C)OCCCC(O)(CC)CC)CC[C@@H]23)C[C@@H](O)C[C@@H]1O |  |
| 5 | C=C1/C(=C/C=C2/CCC[C@@]3(C)[C@H]2CC[C@H]3[C@@H](C)CCCCC(O)(CC)CC)C[C@@H](O)C[C@@H]1O |  |
| 100 | C=C1/C(=C/C=C2/CCC[C@]3(C)[C@@H]([C@@H](C)CCCC(O)(CC)CC)CC[C@@H]23)C[C@@H](O)C[C@@H]1O |  |
